“Also recorded” adds a separate entry of the source.
Columns and labels:
[1] = Enzymatic activity of glucokinase immobilized on solid supports or electrode surfaces; type: biochemical, human; conditions: for glucokinase activity while immobilized: on glutathione or Ni2+-containing supports
Procedure: The enzymatic activity of the wild-type GST and His-tagged glucokinases was measured while the proteins were immobilized on glutathione or Ni^2+-containing supports, respectively.
This was not a complete surprise, as the final coupling requires free amino groups of the protein. Most likely there are a significant number of such groups involved, but in the process of participating in the coupling, enzyme function is destroyed.
Each step was analyzed by bioimpedance measurements. First, nitrilotriacetic acid (NTA) ligand (FIG. 9A) was coupled to SP electrode surface using 1-ethyl-3-(3-dimethylaminopropyl)-carbodiimide (EDC) activation (FIG. 9B). Electrodes were then loaded with Ni^2+ cations. Wild-type His-GLK (1 μg) was then avidly coupled to the electrode surface, again corroborated by impedance measurements (FIG. 9C). These prepared electrodes were subsequently used as glucose biosensors.

[2] = Intrinsic fluorescence spectroscopy of His-tagged glucokinase in solution; type: binding, human; conditions: 100 mM glucose, excitation 280 nm
Procedure: FIG. 7 depicts fluorescence spectroscopy analysis of His-tagged glucokinase. The intrinsic fluorescence intensity spectrum of His-tagged wild-type glucokinase was measured following excitation at 280 nm. The baseline spectrum of His-tagged glucokinase alone is shown (His-GLK, thin dashed line).
Intrinsic fluorescence experiments with glucokinase were performed to document and verify glucose-induced conformational changes, which is an absolute requirement for impedance biosensing to be successful. Purified wild-type N-terminal His-tagged glucokinase (10 μg) with enzyme specific activity of ≅200 U/mg was used in a 10×10 mm^2 cuvette. After the addition of 100 mM glucose, intrinsic fluorescence spectroscopy was performed (excitation wavelength 280 nm; maximum fluorescence 312 nm). There is a 20-25% increase in maximal intrinsic fluorescence at 312 nm with the addition of 100 mM glucose, reflective of conformational changes in the His-tagged glucokinase (FIG. 7). This is similar to native wild-type glucokinase [Xu L Z, Zhang W, Weber I T, Harrison R W, Pilkis S J. 1994. Site-directed mutagenesis studies on the determinants of sugar specificity and cooperative behavior of human beta-cell glucokinase. J Biol Chem 269:27458-27465; and Xu L Z, Weber I T, Harrison R W, Gidh-Jain M, Pilkis S J. 1995. […]

[3] = Impedance biosensing with His-GLK immobilized on Ni2+-NTA screen-printed electrodes; parameters: species or system human; conditions: 100 mM glucose, Ni2+-NTA screen-printed electrode
Procedure: FIG. 9 depicts A) Immobilized-metal affinity chromatography (IMAC). Adjacent histidine residues in His-tagged proteins interact with the Ni^2+-NTA matrix. B-D) Typical Nyquist diagrams obtained for different electrode surface conditions. The imaginary (Zi) and real (Zr) complex impedence elements were calculated by computer following impedence measurements. B) Modification of screen-printed electrode (SPE) with NTA ligand. Nitrilotriacetic acid (NTA) ligand was coupled to the bare SPE electrode surface using 1-ethyl-3-(3-dimethylaminopropyl)-carbodiimide (EDC) activation. C) Immobilization of glucokinase. The SPE was loaded with Ni^2+ cations (Ni2+) and His-tagged wild-type glucokinase (GLK) immobilized on the surface. D) Detection of glucose.
To establish the use of modified re-engineered glucokinase molecules as potential mediators of glucose recognition, experiments were performed using impedance biosensing technology. The initial objectives were to covalently immobilize wild-type glucokinase on two potential electrode substrates: silicon (Si; industry standard), and screen-printed graphite (SP) electrodes [Marquette, C. A. et al., Anal. Chem., 78:959-964 (2006)]. Impedance measurements were used to monitor the changes of glucokinase in the presence of glucose. […]
Each step was analyzed by bioimpedance measurements. […]

[4] = Glucokinase activity of purified tagged glucokinases, coupled glucose 6-P dehydrogenase/NADPH assay; type: biochemical, human
Procedure: Glucokinase activity was assayed as described previously [Storer, A. C., et al., Biochem. J. 141:205-209 (1974)] with the following modifications. Reactions were carried out at 25° C. in 50 nM glycylglycinate buffer, pH 7.8, containing 1 mM NADP, 100 mM KCl, 5 mM MgCl2, 1 unit of glucose 6-P dehydrogenase, 100 mM glucose, 5 mM ATP, and glucokinase in a total volume of 1 ml. All reaction mixtures were incubated at 25° C.
Production of NADPH was followed by the increase in absorbance at 340 nm using a spectrophotometer. Glucokinase activity may then be calculated using the following formula: Activity (units/ml)=(Δ OD/min)/0.15×dilution factor
A unit of activity is the amount of glucokinase which transforms, under optimal conditions, 1 μmole of substrate/min at room temperature.
The glucokinase activity of the purified glucokinases was assayed as above.

[5] = Intrinsic fluorescence spectroscopy of His-tagged glucokinase immobilized on Ni-NTA agarose; type: binding, human; conditions: for change of maximal intrinsic fluorescence in presence of glucose, immobilized protein: 100 mM glucose, Ni-NTA agarose bound
Procedure: FIG. 8 depicts fluorescence spectroscopy analysis of His-tagged glucokinase immobilized on Ni-NTA agarose (QIAGEN). The intrinsic fluorescence intensity spectra were measured in the absence and presence of 100 mM glucose following excitation at 280 nm. The baseline spectrum of immobilized His-tagged glucokinase alone is shown (Ni-NTA-His-GLK, thin line).
Intrinsic fluorescence experiments were performed on purified immobilized wild-type N-terminal His-tagged glucokinase (FIG. 8). […] Next, immobilized His-GLK that had been previously incubated with glucose was washed with glucose-free buffer. […] When the washed Ni^2+-bound His-GLK was incubated with glucose, again an upward shift in the fluorescence intensity occurred, indicative of a recurring conformational change in the protein.

Row | Substance | glucokinase activity while immobilized [1] | glucokinase activity while immobilized ([1]; listed as His-tagged glucokinase) | increase in maximal intrinsic fluorescence at 312 nm [2] | change of maximum intrinsic fluorescence intensity on glucose addition ([2]; in solution) | impedance change in the presence of glucose [3] | impedance change in the presence of glucose ([3]; listed as His-tagged GLK) | glucokinase enzymatic activity ([4]; purified affinity-tagged protein, 100 mM glucose, 5 mM ATP, 25° C.) | enzyme specific activity ([4]; purified wild-type N-terminal His-tagged glucokinase) [U/mg] | change of maximal intrinsic fluorescence in presence of glucose, immobilized protein [5] | change of maximal intrinsic fluorescence in presence of glucose, immobilized protein ([5]; listed as Ni-NTA-His-GLK) | reversibility of glucose binding ([5]; immobilized, washed with glucose-free buffer) | enzyme activity after covalent coupling to electrode surface ([1]; nitrobenzenediazoniun/glutaraldehyde coupling)
1 | His-GLK: wild-type human liver glucokinase with N-terminal polyhistidine tag, expressed from pET-15b in E. coli | retained glucokinase activity | retained full enzymatic activity | 20-25% | increase in the maximum fluorescence intensity | significant impedance changes | significant shift to the left in the curve | expected enzymatic activity; also recorded: significant glucokinase enzymatic activity | ~200 | increase in the maximal intrinsic fluorescence | maximum fluorescence intensity increased | reversible | 
2 | glucokinase: human wild-type glucokinase, hexokinase family enzyme binding D-glucose |  |  |  |  |  |  |  |  |  |  |  | total loss of enzyme activity

From patent US20070219346A1, “Glucose sensor and uses thereof” (McGill University, priority 2002, published 2007)
